Results reported in paper PMC4929166, “Pharmacological evaluation of synthetic cannabinoids identified as constituents of spice” (Forensic Toxicology, 2016).
Like-named read-outs stand apart in the source and are kept apart here.

Assays:
[1] = molecular target: T1, CB2 receptor (Homo sapiens, UniProt P34972); experiment: cAMP accumulation assay in CHO cells expressing CB2; type: cell-based; design: expressed in transfected cells; host or cells: CHO cells; conditions: cAMP accumulation, forskolin 10 µM, normalized to CP55,940; for efficacy at CB2 receptor (in words): test concentration 1 µM or 10 µM
T1 sequence (P34972 whole entry): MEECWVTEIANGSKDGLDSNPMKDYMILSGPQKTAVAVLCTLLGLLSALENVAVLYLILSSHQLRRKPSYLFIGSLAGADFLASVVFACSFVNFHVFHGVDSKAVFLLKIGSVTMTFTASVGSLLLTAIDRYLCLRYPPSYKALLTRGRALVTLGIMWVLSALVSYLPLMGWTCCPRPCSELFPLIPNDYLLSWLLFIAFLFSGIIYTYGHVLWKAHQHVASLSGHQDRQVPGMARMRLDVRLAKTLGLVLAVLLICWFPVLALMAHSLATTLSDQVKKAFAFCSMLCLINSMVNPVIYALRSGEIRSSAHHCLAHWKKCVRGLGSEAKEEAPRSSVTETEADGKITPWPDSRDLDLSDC

[2] = molecular target: T1, CB2 receptor; experiment: biochemical; type: binding; design: expressed in transfected cells; host or cells: CHO cells (membrane preparation); conditions: for Ki: versus 0.1 nM [3H]CP55,940, CHO cell membranes, mean ± SEM of three to five experiments, read-out: Ki ± SEM Human CB2
[3] = molecular target: T2, human GPR55 (Homo sapiens, UniProt Q9Y2T6); experiment: β-Arrestin recruitment assay (PathHunter) at GPR55; type: cell-based; conditions: for IC50: Human GPR55 IC50, β-arrestin assay, antagonist mode; for Human GPR55 % activation / Human GPR55 % inhibition: β-arrestin assay; for Human GPR55 % activation: percent in brackets beside EC50 >10 µM; for Human GPR55 % inhibition: percent in brackets beside IC50
T2 construct: β-galactosidase enzyme fragment (PathHunter complementation tag)
T2 sequence (Q9Y2T6 whole entry, the tested form may be a part): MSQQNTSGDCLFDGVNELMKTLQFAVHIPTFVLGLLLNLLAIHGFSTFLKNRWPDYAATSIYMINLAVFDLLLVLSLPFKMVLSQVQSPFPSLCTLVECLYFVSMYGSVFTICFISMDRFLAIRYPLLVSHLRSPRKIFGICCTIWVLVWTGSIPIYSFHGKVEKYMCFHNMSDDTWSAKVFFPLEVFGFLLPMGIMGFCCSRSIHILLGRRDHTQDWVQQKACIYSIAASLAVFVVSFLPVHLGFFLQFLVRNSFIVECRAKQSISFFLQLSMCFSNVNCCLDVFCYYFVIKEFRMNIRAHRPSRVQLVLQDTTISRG
Protocol: (§1) Recruitment of β-arrestin to the respective receptor was detected by using β-galactosidase enzyme fragment complementation technology (β-arrestin PathHunter™ assay, DiscoverX, Fremont, CA, USA) as previously described. Data were obtained from three independent experiments, performed in duplicates. Data were analyzed using Graph Pad Prism Version 4.02 (San Diego, CA, USA).

[4] = molecular target: T3, CB1 receptor (Homo sapiens, UniProt P21554); experiment: biochemical; type: binding; design: expressed in transfected cells; host or cells: CHO cells (membrane preparation); conditions: for CB1 selectivity Ki CB2/KiCB1: Table S1, selectivity index from Ki values; for Ki: versus 0.1 nM [3H]CP55,940, CHO cell membranes, mean ± SEM of three to five experiments, read-out: Ki ± SEM Human CB1
T3 sequence (P21554 whole entry): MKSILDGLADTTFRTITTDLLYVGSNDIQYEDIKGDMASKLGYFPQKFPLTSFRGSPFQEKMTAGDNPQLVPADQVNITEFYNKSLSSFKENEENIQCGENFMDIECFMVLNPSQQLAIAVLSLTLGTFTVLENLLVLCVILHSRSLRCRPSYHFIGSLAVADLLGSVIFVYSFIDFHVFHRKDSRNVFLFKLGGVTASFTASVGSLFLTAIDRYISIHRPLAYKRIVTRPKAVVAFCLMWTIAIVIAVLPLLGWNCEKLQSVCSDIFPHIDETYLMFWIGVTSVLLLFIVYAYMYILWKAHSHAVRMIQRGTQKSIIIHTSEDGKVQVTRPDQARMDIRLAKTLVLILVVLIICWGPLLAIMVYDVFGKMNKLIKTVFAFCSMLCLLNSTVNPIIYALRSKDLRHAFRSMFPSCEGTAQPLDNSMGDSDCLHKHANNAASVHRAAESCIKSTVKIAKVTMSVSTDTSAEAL

[5] = molecular target: T4, human GPR18 (Homo sapiens, UniProt Q14330); experiment: β-Arrestin recruitment assay (PathHunter) at GPR18; type: cell-based; conditions: for Human GPR18 % activation / Human GPR18 % inhibition: β-arrestin assay; for Human GPR18 % activation: percent in brackets beside EC50 >10 µM; for Human GPR18 % inhibition: percent in brackets beside IC50
T4 construct: β-galactosidase enzyme fragment (PathHunter complementation tag)
T4 sequence (Q14330 1-331): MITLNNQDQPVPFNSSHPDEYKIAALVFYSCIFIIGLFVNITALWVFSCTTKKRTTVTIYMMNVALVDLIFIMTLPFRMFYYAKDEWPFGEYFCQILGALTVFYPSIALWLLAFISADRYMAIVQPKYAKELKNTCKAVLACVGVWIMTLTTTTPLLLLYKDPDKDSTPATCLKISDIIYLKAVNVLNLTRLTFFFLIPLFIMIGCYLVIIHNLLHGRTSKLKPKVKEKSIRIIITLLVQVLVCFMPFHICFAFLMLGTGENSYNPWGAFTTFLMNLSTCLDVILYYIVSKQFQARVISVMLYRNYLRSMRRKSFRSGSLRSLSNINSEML
Protocol: as §1

[6] = molecular target: T3, CB1 receptor; experiment: cell-based; type: cell-based; design: expressed in transfected cells; host or cells: CHO cells; conditions: cAMP accumulation, forskolin 10 µM; test concentration 1 µM or 10 µM; normalized to CP55,940
[7] = tested on: Human CB1; conditions: ref Banister et al. [28]; read-out: EC50 Human CB1 (literature, functional assay) (converted); cited from earlier work
[8] = tested on: Human CB2; conditions: ref Banister et al. [28]; read-out: EC50 Human CB2 (literature, functional assay) (converted); cited from earlier work
[9] = Table S1, selectivity index from Ki values

SMILES	activation of CB2 receptor compared to full agonist CP55,940 [1]	CB2 selectivity Ki CB1/KiCB2 [2, 9]	inhibition at 30 µM ([2]; at 30 µM, read-out: Maximal inhibition of radioligand binding, human CB2) [%]	Ki [2] [nM]	EC50 [3] [nM]	IC50 [3] [nM]	Human GPR55 % activation [3] [%]	Human GPR55 % inhibition [3] [%]	fold decrease of affinity when naphthyl is linked in 2-position ([4]; CB1, compared with 5F-NNEI (5))	CB1 selectivity Ki CB2/KiCB1 [4]	Ki [4] [nM]	efficacy at CB2 receptor (in words) [1]	EC50 [5] [nM]	IC50 [5] [nM]	Human GPR18 % activation [5] [%]	Human GPR18 % inhibition [5] [%]	efficacy at CB1 receptor (in words) [6]	EC50 [7] [nM]	EC50 [8] [nM]	CB2 selectivity Ki CB1/KiCB2 [2]
CCCCCc1cc(O)c2c(c1)OC(C)(C)[C@@H]1CCC(C)=C[C@@H]21 [Compound 1, Δ^9-tetrahydrocannabinol, reference compound]	60–70%																			
O=C(Nc1ccc2ccccc2c1)c1cn(CCCCCF)c2ccccc12 [Compound 7, 5F-NNEI-2-naphthyl-isomer]		1.0	80	226 ± 24	> 10000	> 10000	19	20	about 100 fold	1.0	235 ± 15	lower efficacy than Δ^9-THC	> 10000	> 10000	9	5	lower efficacy than Δ^9-THC			
CCCCCn1nc(C(=O)Nc2cccc3ccccc23)c2ccccc21 [Compound 8, MN-18]		1.1		3.47 ± 0.89	> 10000	> 10000	27	35		0.9	3.86 ± 0.9	lower efficacy than Δ^9-THC	> 10000	> 10000	2	37	lower efficacy than Δ^9-THC			
CCCCCn1cc(C(=O)NCc2ccccc2)c2ccccc21 [Compound 12, SDB-006]				188 ± 38	> 10000	> 10000	−5	36		3.5	53 ± 1.1		> 10000	> 10000	−9	22		134	19	
O=C(NCc1ccccc1)c1cn(CCCCCF)c2ccccc12 [Compound 13, 5F-SDB-006]				430 ± 73	> 10000	> 10000	−3	11		6.0	71.9 ± 13.5		> 10000	> 10000	13	−24		50	123	
CCCCCn1cc(C(=O)NC23CC4CC(CC(C4)C2)C3)c2ccccc21 [Compound 15, APICA]				1.22 ± 0.14	> 10000	4770 ± 1690	11				6.52 ± 3.73		> 10000	> 10000	8	44		128	29	5.3
O=C(NC12CC3CC(CC(C3)C1)C2)c1cn(CCCCCF)c2ccccc12 [Compound 16, STS-135 (5F-APICA)]		3.2		0.794 ± 0.071	> 10000	3410 ± 470	1				2.51 ± 0.35		> 10000	> 10000	−2	30		51	13	
